How the values were obtained:
[1] = Induction of apoptosis in mouse BaF3 cells harboring CCDC6-RET G810R mutant assessed as late apoptotic cells at 30 nM incubated for 48 hrs by Annexin V-PE staining based flow cytometry analysis (Rvb =3.21%); type: functional
[2] = molecular target: T1, Platelet-derived growth factor receptor alpha (Homo sapiens, UniProt P16234); assay: Inhibition of PDGFRalpha (unknown origin)
[3] = Induction of cell cycle arrest in mouse BaF3 cells harboring CCDC6-RET assessed as accumulation of cells at G0/G1 phase at 10 nM incubated for 24 hrs by propidium iodide staining based analysis (reference value: 52.51%); type: functional
[4] = test system: Proto-oncogene tyrosine-protein kinase receptor Ret (Homo sapiens), P07949 [G810C]; assay: Inhibition of RET (unknown origin) G810C mutant at 1 uM relative to control
[5] = Induction of apoptosis in mouse BaF3 cells harboring CCDC6-RET assessed as viable cells at 100 nM incubated for 48 hrs by Annexin V-PE staining based flow cytometry analysis (Rvb =91.16%); type: functional; conditions: read-out: Activity
[6] = Induction of cell cycle arrest in mouse BaF3 cells harboring CCDC6-RET assessed as accumulation of cells at S phase at 10 nM incubated for 24 hrs by propidium iodide staining based analysis (reference value: 13.27%); type: functional
[7] = molecular target: Proto-oncogene tyrosine-protein kinase receptor Ret (Homo sapiens, UniProt P07949); assay: Inhibition of RET (unknown origin)
[8] = Induction of apoptosis in mouse BaF3 cells harboring CCDC6-RET G810R mutant assessed as late apoptotic cells at 100 nM incubated for 48 hrs by Annexin V-PE staining based flow cytometry analysis (Rvb =3.21%); type: functional
[9] = Induction of apoptosis in mouse BaF3 cells harboring CCDC6-RET assessed as necrotic cells at 30 nM incubated for 48 hrs by Annexin V-PE staining based flow cytometry analysis (Rvb =0.19%); type: functional
[10] = Induction of apoptosis in mouse BaF3 cells harboring CCDC6-RET G810C mutant assessed as late apoptotic cells at 30 nM incubated for 48 hrs by Annexin V-PE staining based flow cytometry analysis (Rvb =4.30%); type: functional
BaF3 [11] = assay: Inhibition of RET phosphorylation in mouse BaF3 cells harboring CCDC6-RET G810C mutant incubated for 12 hrs by Western blotting analysis; type: cell-based; conditions: dose <= 300.0 nM
[12] = Induction of apoptosis in mouse BaF3 cells harboring CCDC6-RET G810R mutant assessed as early apoptotic cells at 10 nM incubated for 48 hrs by Annexin V-PE staining based flow cytometry analysis (Rvb =10 %); type: functional
[13] = Induction of cell cycle arrest in mouse BaF3 cells harboring CCDC6-RET G810C mutant assessed as accumulation of cells at G0/G1 phase at 300 nM incubated for 24 hrs by propidium iodide staining based analysis (reference value: 52.11%); type: functional
[14] = Induction of cell cycle arrest in mouse BaF3 cells harboring CCDC6-RET G810R mutant assessed as accumulation of cells at G2/M phase at 100 nM incubated for 24 hrs by propidium iodide staining based analysis (reference value: 33.61%); type: functional
[15] = Induction of cell cycle arrest in mouse BaF3 cells harboring CCDC6-RET G810C mutant assessed as accumulation of cells at G0/G1 phase at 100 nM incubated for 24 hrs by propidium iodide staining based analysis (reference value: 52.11%); type: functional
[16] = Induction of apoptosis in mouse BaF3 cells harboring CCDC6-RET G810C mutant assessed as early apoptotic cells at 300 nM incubated for 48 hrs by Annexin V-PE staining based flow cytometry analysis (Rvb =8.74%); type: functional
[17] = Induction of apoptosis in mouse BaF3 cells harboring CCDC6-RET assessed as late apoptotic cells at 10 nM incubated for 48 hrs by Annexin V-PE staining based flow cytometry analysis (Rvb =2.44%); type: functional
[18] = Induction of apoptosis in mouse BaF3 cells harboring CCDC6-RET G810R mutant assessed as viable cells at 10 nM incubated for 48 hrs by Annexin V-PE staining based flow cytometry analysis (Rvb =86.40%); type: functional; conditions: read-out: Activity
BaF3 [19] = assay: Antiproliferative activity against mouse BaF3 cells harbouring CCDC6-RET G810R mutant assessed as inhibition of cell proliferation incubated for 72 hrs by CCK-8 assay; type: functional, cell-based; conditions: BaF3, 72 h
[20] = Induction of apoptosis in mouse BaF3 cells harboring CCDC6-RET G810R mutant assessed as necrotic cells at 10 nM incubated for 48 hrs by Annexin V-PE staining based flow cytometry analysis (Rvb =0.30%); type: functional
[21] = test system: Proto-oncogene tyrosine-protein kinase receptor Ret (Homo sapiens), P07949 [V804M]; assay: Inhibition of RET (unknown origin) V804M mutant at 1 uM relative to control
[22] = Induction of apoptosis in mouse BaF3 cells harboring CCDC6-RET G810C mutant assessed as necrotic cells at 30 nM incubated for 48 hrs by Annexin V-PE staining based flow cytometry analysis (Rvb =0.48%); type: functional
[23] = Induction of cell cycle arrest in mouse BaF3 cells harboring CCDC6-RET assessed as accumulation of cells at S phase at 100 nM incubated for 24 hrs by propidium iodide staining based analysis (reference value: 13.27%); type: functional
BaF3 [24] = assay: Antiproliferative activity against mouse BaF3 cells harbouring CCDC6-RET V804M mutant assessed as inhibition of cell proliferation incubated for 72 hrs by CCK-8 assay; type: functional, cell-based; conditions: BaF3, 72 h
[25] = Induction of apoptosis in mouse BaF3 cells harboring CCDC6-RET G810R mutant assessed as early apoptotic cells at 300 nM incubated for 48 hrs by Annexin V-PE staining based flow cytometry analysis (Rvb =10 %); type: functional
[26] = Induction of apoptosis in mouse BaF3 cells harboring CCDC6-RET assessed as early apoptotic cells at 10 nM incubated for 48 hrs by Annexin V-PE staining based flow cytometry analysis (Rvb =6.21%); type: functional
[27] = Induction of cell cycle arrest in mouse BaF3 cells harboring CCDC6-RET G810R mutant assessed as accumulation of cells at G2/M phase at 300 nM incubated for 24 hrs by propidium iodide staining based analysis (reference value: 33.61%); type: functional
[28] = Induction of apoptosis in mouse BaF3 cells harboring CCDC6-RET assessed as late apoptotic cells at 300 nM incubated for 48 hrs by Annexin V-PE staining based flow cytometry analysis (Rvb =2.44%); type: functional
[29] = Induction of cell cycle arrest in mouse BaF3 cells harboring CCDC6-RET G810C mutant assessed as accumulation of cells at G2/M phase at 300 nM incubated for 24 hrs by propidium iodide staining based analysis (reference value: 34.75%); type: functional
[30] = Induction of cell cycle arrest in mouse BaF3 cells harboring CCDC6-RET G810R mutant assessed as accumulation of cells at S phase at 300 nM incubated for 24 hrs by propidium iodide staining based analysis (reference value: 13.66%); type: functional
[31] = molecular target: T1, Platelet-derived growth factor receptor alpha; assay: Inhibition of PDGFRalpha (unknown origin) at 1 uM relative to control

T1 sequence (P16234 whole entry): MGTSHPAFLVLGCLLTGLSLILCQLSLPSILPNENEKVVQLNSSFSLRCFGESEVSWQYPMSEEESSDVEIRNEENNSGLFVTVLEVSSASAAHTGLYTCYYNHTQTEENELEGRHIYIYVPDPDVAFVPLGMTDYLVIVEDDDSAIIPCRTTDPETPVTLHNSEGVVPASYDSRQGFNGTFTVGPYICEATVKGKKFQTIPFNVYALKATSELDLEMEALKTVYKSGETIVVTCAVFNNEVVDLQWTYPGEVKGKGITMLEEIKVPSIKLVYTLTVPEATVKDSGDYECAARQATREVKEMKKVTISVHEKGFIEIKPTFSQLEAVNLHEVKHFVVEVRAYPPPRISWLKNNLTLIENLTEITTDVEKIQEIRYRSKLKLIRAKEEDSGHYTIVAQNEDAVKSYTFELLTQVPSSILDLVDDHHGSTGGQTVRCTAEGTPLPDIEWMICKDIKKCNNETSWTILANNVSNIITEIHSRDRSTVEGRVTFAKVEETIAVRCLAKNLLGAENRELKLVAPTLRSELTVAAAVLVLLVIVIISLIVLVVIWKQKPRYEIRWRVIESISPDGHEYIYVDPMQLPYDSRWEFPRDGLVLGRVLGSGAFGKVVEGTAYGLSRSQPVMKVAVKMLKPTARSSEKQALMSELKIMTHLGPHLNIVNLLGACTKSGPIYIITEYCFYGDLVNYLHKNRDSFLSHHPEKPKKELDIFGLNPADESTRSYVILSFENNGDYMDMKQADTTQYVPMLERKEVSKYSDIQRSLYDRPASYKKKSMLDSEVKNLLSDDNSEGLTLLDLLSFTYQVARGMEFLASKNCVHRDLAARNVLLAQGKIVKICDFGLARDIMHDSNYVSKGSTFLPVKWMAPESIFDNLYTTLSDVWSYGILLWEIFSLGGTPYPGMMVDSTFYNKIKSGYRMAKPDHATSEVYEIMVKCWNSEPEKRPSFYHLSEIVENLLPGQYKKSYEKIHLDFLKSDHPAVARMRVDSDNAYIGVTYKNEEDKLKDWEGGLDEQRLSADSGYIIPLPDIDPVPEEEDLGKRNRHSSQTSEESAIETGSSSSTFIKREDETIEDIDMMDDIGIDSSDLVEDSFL
Proto-oncogene tyrosine-protein kinase receptor Ret, sequence (P07949 whole entry): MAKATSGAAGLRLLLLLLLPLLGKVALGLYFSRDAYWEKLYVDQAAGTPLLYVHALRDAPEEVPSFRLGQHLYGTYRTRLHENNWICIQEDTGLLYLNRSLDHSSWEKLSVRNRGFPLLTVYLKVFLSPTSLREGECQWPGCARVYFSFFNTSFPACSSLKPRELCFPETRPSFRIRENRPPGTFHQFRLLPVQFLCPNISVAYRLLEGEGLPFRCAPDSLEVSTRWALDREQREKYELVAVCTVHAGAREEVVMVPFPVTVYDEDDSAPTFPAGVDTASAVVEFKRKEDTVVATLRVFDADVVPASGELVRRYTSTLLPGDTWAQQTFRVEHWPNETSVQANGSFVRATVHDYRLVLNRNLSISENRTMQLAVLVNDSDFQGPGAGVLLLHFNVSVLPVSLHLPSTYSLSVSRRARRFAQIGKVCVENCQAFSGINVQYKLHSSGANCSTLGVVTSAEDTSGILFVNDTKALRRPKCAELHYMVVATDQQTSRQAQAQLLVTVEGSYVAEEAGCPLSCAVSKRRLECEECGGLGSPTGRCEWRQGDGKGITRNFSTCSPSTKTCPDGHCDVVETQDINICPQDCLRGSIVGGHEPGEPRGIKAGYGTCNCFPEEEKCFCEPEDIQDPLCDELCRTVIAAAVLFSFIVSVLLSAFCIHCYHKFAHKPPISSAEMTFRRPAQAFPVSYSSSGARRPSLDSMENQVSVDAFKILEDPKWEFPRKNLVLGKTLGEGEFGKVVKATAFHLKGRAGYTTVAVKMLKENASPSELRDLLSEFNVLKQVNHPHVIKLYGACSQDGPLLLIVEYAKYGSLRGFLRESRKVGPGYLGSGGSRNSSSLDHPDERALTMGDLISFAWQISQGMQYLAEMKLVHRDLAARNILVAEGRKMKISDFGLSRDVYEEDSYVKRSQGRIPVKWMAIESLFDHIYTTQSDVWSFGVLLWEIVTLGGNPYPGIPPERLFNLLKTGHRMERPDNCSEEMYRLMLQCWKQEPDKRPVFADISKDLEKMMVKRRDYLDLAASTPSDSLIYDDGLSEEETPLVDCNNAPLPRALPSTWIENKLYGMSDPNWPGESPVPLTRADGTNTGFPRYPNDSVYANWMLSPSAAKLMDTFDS
Proto-oncogene tyrosine-protein kinase receptor Ret (Homo sapiens), P07949 [V804M], sequence (P07949 whole entry V804M): as the sequence (P07949 whole entry) above, with V804M counted along it
Proto-oncogene tyrosine-protein kinase receptor Ret (Homo sapiens), P07949 [G810C], sequence (P07949 whole entry G810C): as the sequence (P07949 whole entry) above, with G810C counted along it

IC50 [2]: 17.3 nM
inhibition [4]: 102%
IC50 [7]: 4.2 nM
IC50 (BaF3 [19]): 28.4 nM
inhibition [21]: 98.6%
IC50 (BaF3 [24]): 563 nM
inhibition [31]: 101%
SMILES: COc1cncc(-c2cn[nH]c2/C=C/c2ccc(NC(=O)Nc3cc(C(C)(C)C(F)(F)F)on3)c(Cl)c2)c1
Activity [1]: 2.48%
Activity [3]: 54%
viability at 0.1 µM [5]: 24%
Activity [6]: 13.37%
Activity [8]: 10.19%
Activity [9]: 0.03%
Activity [10]: 3.57%
inhibition (BaF3 [11]): Dose-dependent-effect
Activity [12]: 10.05%
Activity [13]: 72.47%
Activity [14]: 28.68%
Activity [15]: 66.6%
Activity [16]: 91.44%
Activity [17]: 2.8%
viability at 0.01 µM [18]: 86.4%
Activity [20]: 0.17%
Activity [22]: 0.47%
Activity [23]: 7.33%
Activity [25]: 0.29%
Activity [26]: 8.7%
Activity [27]: 16.09%
Activity [28]: 1.39%
Activity [29]: 23.18%
Activity [30]: 4.8%
